system: synthesis of LTB4 in human whole blood; experiment: human whole blood (HWB) assay, LTB4 production inhibition after calcimycin; assay type: cell-based; settings: heparinized human whole blood, calcimycin 20 μM, 37° C., plasma LTB4
Protocol: The compounds of the invention are additionally tested in a human whole blood (HWB) assay to determine their ability to inhibit the synthesis of LTB4 in a cellular system. Compounds are combined with heparinized human whole blood and incubated for 15 minutes at 37° C. Calcimycin (20 μM final, prepared in phosphate-buffered saline, pH 7.4) is then added and the mixture is incubated for another 30 minutes at 37° C. The samples are centrifuged for 5 min at low speed (1500×g) and the plasma layer is removed. Plasma LTB4 concentrations are then measured using an antibody-based homogenous time-resolved fluorescence method (CisBio, Bedford, Mass.). In general, the preferred potency range (IC50) of compounds in the HWB assay is between 10 nM to 10 μM, the more preferred potency range is 10 nM to 1 μM, and the most preferred potency range is 10 nM to 100 nM.

Compound | IC50
c1ccc2c(c1)OC[C@H](c1ccc(CN3CCC[C@H]4CCCCC43)cc1)O2 (stereo in doubt) [Example 85, (4aR,8aS)-1-{4-[(2S)-2,3-dihydro-1,4-benzodioxin-2-yl]benzyl}decahydroquinoline] | 305 nM
c1cnc2c(c1)OC[C@H](c1ccc(CN3[C@H]4CC[C@@H]3CC4)cc1)O2 [Example 145, (3S)-3-{4-[(1s,4s)-7-azabicyclo[2.2.1]hept-7-ylmethyl]phenyl}-2,3-dihydro[1,4]dioxino[2,3-b]pyridine] | 28.4 nM
CC(C)(O)C(=O)NC1CCN(Cc2ccc([C@H]3COc4ccccc4O3)cc2)CC1 [Example 220, N-(1-{4-[(2S)-2,3-dihydro-1,4-benzodioxin-2-yl]benzyl}piperidin-4-yl)-2-hydroxy-2-methylpropanamide] | 91.1 nM
O[C@@H]1CCN(Cc2ccc(C3COc4ccccc4O3)cc2)C1 (mixture of isomers) [Example 9, (3S)-1-[4-(2,3-dihydro-1,4-benzodioxin-2-yl)benzyl]pyrrolidin-3-ol] | 285 nM
